Assay results as given in paper PMC8955485, “Journey on VX-809-Based Hybrid Derivatives towards Drug-like F508del-CFTR Correctors: From Molecular Modeling to Chemical Synthesis and Biological Assays” (Pharmaceuticals, 2022).

Assays:
F508del-CFTR [1] = target: T1, F508del-CFTR (Homo sapiens, UniProt P13569, DEL508-508); assay: HS-YFP functional assay of corrector combinations with VX-445; format: cell-based; parameters: expressed in transfected cells; conditions: CFBE41o- cells, 24 h, VX-445 3 µM; for effect of combination with VX-445 on F508del-CFTR activity: forskolin 20 µM plus VX-770 1 µM
Protocol: Now, to further characterize the activity of these compounds, we tested the novel derivates 9b, 9g, and 9j, along with VX-809 as a positive control, in combination with VX-445 (3 µM), in CFBE41o-cells stably expressing F508del-CFTR by using the YFP functional assay (Figure 7). To this aim, cells were treated for 24 h with test compounds at different concentrations, in combination with VX-445 (3 µM), and then assayed after maximal stimulation of F508del-CFTR in the presence of forskolin (20 µM) plus VX-770 (1 µM).
(§1) CFBE41o-cells co-expressing mutants CFTR and HS-YFP were plated (50,000 cells/well) on clear-bottom 96-well black microplates (Corning Life Sciences, Acton, MA) and grown at 37 °C in 5% CO2 for 24 h. For the corrector assay, CFBE41o-cells were treated for further 24 h with compounds as indicated. The following day, prior to the assay, the culture medium was removed and cells were stimulated for 30 min at 37 °C with 60 µL PBS (containing 137 mM NaCl, 2.7 mM KCl, 8.1 mM Na2HPO4, 1.5 mM KH2PO4, 1mM CaCl2, and 0.5 mM MgCl2) plus forskolin (20 µM) and VX-770 (1 µM).
(§2) Microplates containing CFBE41o-cells were then transferred to a plate reader (FluoStar Galaxy; BMG Labtech, Offenburg, Germany) equipped with excitation (HQ500/20X: 500 ± 10 nm) and emission (HQ535/30M: 535 ± 15 nm) filters for YFP (Chroma Technology, Brattleboro, VT, USA). During the assay fluorescence was measured continuously for 14 s with 2 s before and 12 s after injection of an iodide containing solution (165 µL of a modified PBS containing I^- instead of Cl^-; final I^- concentration in the well: 100 mM).
(§3) Fluorescence data were normalized for the initial value and fluorescence quenching rate following I^- influx, were determined by fitting the final 10 s of data for each well with an exponential function to extrapolate initial slope (dF/dt).
Figure 7 Functional analysis of corrector combinations. F508del-CFTR activity was determined in CFBE41o-cells with stable expression of the HS-YFP. Cells were treated for 24 h with VX-445 (3 µM) alone or in combination with 9b, or 9g, or 9j, or VX-809 at different concentrations (from 102 nM to 10 µM). The YFP-based assay was performed after stimulation of CFTR activity with forskolin (20 µM) plus VX-770 (1 µM).

F508del-CFTR [2] = target: T1, F508del-CFTR; assay: HS-YFP functional assay for F508del-CFTR correctors in CFBE41o- cells; format: cell-based; parameters: expressed in transfected cells; conditions: CFBE41o- cells stably expressing F508del-CFTR and HS-YFP; 24 h incubation; stimulation with forskolin 20 µM plus VX-770 1 µM
Protocol: The ability of these compounds to correct the basic defects related to F508del mutant was evaluated on immortalized CFBE41o-bronchial epithelial cells stably expressing F508del-CFTR and the halide sensitive yellow fluorescent protein (HS-YFP).
The measurements of the rate of HS-YFP quenching caused by iodide influx allowed us to determine the activity of F508del-CFTR, after incubation with the compounds, as cited. Activity was then compared to that of cells treated with the corrector VX-809 (1 µM) or with vehicle alone (DMSO).
Within the novel third series of hybrids herein proposed, based on their potency and efficacy in terms of CFTR rescue, we selected six compounds and determined the dose–response relationships (Figure 6). To this aim, F508del-CFTR expressing CFBE41o-cells were treated for 24 h with our hybrids 9b, 9f, 9g, 9h, 9j, and 9y and then mutant CFTR activity was measured by using the YFP functional assay (see Materials and Methods section for details).
Immortalized bronchial epithelial CFBE41o-cells with stable co-expression of the halide-sensitive yellow fluorescent protein (HS-YFP) and of F508del-CFTR were cultured using MEM medium supplemented with 10% fetal calf serum, 100 U/mL penicillin, 2 mM L-glutamine, and […] streptomycin.
as §1, §2, §3
To evaluate the dose–response relationships, activity slopes obtained for each compound at the different concentrations were fitted with the Hill equation using the Igor software (WaveMetrics) to extrapolate EC50, maximal effect, and Hill coefficient.

T1 sequence (P13569 with tags, fused parts or gaps DEL508-508): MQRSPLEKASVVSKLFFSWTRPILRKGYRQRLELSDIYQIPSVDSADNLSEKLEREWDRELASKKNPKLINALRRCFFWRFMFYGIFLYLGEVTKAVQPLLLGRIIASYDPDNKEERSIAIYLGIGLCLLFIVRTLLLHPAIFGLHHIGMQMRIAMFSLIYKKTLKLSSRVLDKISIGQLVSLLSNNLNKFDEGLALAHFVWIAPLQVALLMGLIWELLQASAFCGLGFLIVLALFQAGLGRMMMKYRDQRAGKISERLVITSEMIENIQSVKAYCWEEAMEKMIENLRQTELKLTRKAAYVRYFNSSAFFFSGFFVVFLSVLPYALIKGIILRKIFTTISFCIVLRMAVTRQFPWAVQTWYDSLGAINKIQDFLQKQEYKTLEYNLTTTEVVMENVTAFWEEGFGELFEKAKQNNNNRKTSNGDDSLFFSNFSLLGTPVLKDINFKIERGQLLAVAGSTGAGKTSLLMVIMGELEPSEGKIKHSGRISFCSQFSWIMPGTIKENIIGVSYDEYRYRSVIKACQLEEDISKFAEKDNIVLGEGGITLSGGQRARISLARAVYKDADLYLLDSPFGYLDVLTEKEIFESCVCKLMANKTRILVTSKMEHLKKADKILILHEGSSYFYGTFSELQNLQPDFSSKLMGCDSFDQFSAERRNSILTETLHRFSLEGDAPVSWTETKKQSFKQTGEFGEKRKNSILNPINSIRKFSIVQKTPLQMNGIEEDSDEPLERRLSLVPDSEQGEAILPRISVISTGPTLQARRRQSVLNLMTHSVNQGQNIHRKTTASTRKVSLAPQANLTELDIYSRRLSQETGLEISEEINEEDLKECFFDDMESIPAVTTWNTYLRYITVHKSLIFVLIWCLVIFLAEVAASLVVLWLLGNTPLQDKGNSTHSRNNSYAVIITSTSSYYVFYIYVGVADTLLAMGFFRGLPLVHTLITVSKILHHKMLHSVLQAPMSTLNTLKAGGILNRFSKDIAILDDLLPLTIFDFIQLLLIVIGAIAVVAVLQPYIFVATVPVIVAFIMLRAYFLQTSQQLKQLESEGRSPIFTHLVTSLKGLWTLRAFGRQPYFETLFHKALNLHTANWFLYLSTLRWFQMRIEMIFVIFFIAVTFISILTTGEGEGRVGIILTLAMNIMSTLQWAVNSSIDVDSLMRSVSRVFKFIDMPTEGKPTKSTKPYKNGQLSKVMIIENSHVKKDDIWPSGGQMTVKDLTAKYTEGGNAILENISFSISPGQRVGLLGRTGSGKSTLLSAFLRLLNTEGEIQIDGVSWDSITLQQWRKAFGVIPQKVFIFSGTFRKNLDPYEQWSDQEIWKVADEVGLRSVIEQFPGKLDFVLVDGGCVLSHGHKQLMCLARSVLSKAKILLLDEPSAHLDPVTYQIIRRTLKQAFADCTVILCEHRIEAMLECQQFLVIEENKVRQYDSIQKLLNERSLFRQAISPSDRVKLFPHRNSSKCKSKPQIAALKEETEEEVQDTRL

effect of combination with VX-445 on F508del-CFTR activity (F508del-CFTR [1])	EC50 (F508del-CFTR [2]) [µM]	SMILES	combination with VX-445 compared with VX-809 + VX-445: maximal rescue and activity at low concentration (F508del-CFTR [1])
clear additive effect	0.033	COc1ccc(-c2nc(NC(=O)C3(c4ccc5c(c4)OCO5)CC3)sc2C(=O)c2ccc(N3CCCC3)cc2)cc1 [Compound 9g]	as effective as the combination with the positive control VX-809
clear additive effect	0.037	COc1cccc(-c2nc(NC(=O)C3(c4ccc5c(c4)OCO5)CC3)sc2C(=O)c2ccc(OC(F)(F)F)cc2)c1 [Compound 9j]	as effective as the combination with the positive control VX-809
